# Data from ChEMBL document CHEMBL3507680, “University of Dundee, Gates Library screen for HepG2 cell viability”.
# Experiment: Human HepG2 cell viability assay in 384 well format
# Type: toxicity, cell-based
# Set-up: dose 125 nL, time 70.5 hour; concentration not given beside the values
# Details: HepG2 cells, read-out: Inhibition
row,Compound,cytotoxicity at 70.5 h
1,Cc1nccn1C1CCCN(C(=O)CCCNc2ncccn2)C1 (stereo not drawn),-6.43%
2,CC1CN(C(=O)NCCNc2cnccn2)CCO1 (stereo not drawn),25.6%
3,CCOc1ccccc1CNC(=O)N1CCC(n2cncn2)CC1,-11.8%
4,Cc1cnn(CCC(=O)N2CCCN(c3ccccc3C#N)CC2)c1,-1.64%
5,Cc1ccc(N2CCCC(NCC(=O)NC(C3CC3)C3CC3)C2)nn1 (stereo not drawn),-8.53%
6,CCNC(c1ccc(CC)cc1)c1cccnc1 (stereo not drawn),7.31%
7,CCNC(c1ccc(Cl)cc1)c1cccnc1 (stereo not drawn),34.5%
8,CC(=O)N1CCCN(C(=O)C(C)n2cncn2)CC1 (stereo not drawn),-3.53%
9,CN(C)CCN1CCC(CNCc2c[nH]nc2C(C)(C)C)CC1,28.4%
10,COCCN1CCC(CNCc2c[nH]nc2C(C)(C)C)CC1,24.7%
11,Cc1ccc(NC2CCN(C(=O)c3ccc(C#N)cc3)CC2)nn1,-7.94%
12,CCOCCN1CCN(CC(=O)N2CCCC2)CC1CC (stereo not drawn),-4.43%
13,Cc1ccc(N2CCCC(NCc3cnc(C)s3)C2)nn1 (stereo not drawn),-1.22%
14,CCOCCN1CCN(CC(=O)N2CCC2)CC1CC (stereo not drawn),-7.02%
15,O=C(NCCc1ccccc1)NCC(O)c1cccc(F)c1 (stereo not drawn),-3.34%
16,COc1cc(C(=O)NCc2ccc3c(c2)CCCN3C)cc(OC)c1Br,-8.61%
17,CCOc1ncccc1CNCc1c(C(C)C)nn(C)c1N(C)C,57.6%
18,CCN(Cc1cccc(F)c1)Cn1nc(C)c2c(C)onc2c1=O,-8.8%
19,CSc1ccc(CNC(=O)NCC(O)c2cccc(F)c2)cc1 (stereo not drawn),-7.86%
20,Fc1ccc(-c2nc(CN3CCOC(Cn4cccn4)C3)co2)cc1 (stereo not drawn),-5.89%
21,O=c1[nH]c(CN2CCOC(Cn3cccn3)C2)nc2ccccc12 (stereo not drawn),-6.2%
22,Cc1cnc(C(=O)NCc2ccc3c(c2)CCCN3C)cn1,-4.01%
23,Cc1cnn(CC2CN(Cc3nc4ccccc4s3)CCO2)c1 (stereo not drawn),-4.94%
24,CN1CCCc2cc(CNC(=O)c3ccc(-n4cnnc4)cc3)ccc21,-2.87%

row,Compound,cytotoxicity at 70.5 h
1,N#Cc1ccc(CC(=O)N2CCC(Nc3cccnn3)CC2)cc1,-5.35%
2,Cc1ccc(CC(=O)N2CCC(Nc3ccc(C)nn3)CC2)cn1,-1.2%
3,Cc1sc(-c2ccco2)nc1C(=O)N1CCCC1Cn1cccn1 (stereo not drawn),-1.73%
4,O=C(c1cnc(-c2cnccn2)s1)N1CCCC1Cn1cccn1 (stereo not drawn),-3.28%
5,Cc1nc(C)n(C2CCCN(C(=O)c3cn4cccnc4n3)C2)n1 (stereo not drawn),2.73%
6,CC(C)c1nccn1C1CCCN(C(=O)c2cn3cccnc3n2)C1 (stereo not drawn),-3.43%
7,CN1CCCc2cc(CNC(=O)c3cc[n+]([O-])cc3)ccc21,-6.17%
8,CC(C)COCCCNC(=O)NCC(O)c1cccc(F)c1 (stereo not drawn),-0.106%
9,CCOc1cccc2c1OCC(C(=O)NS(=O)(=O)c1cccs1)=C2,-9.43%
10,COCCCN(CCOC)Cc1nc2c(cnn2C)c(=O)[nH]1,-12.6%
11,CSCc1ccc(C(=O)N2CCN(CC(C)O)CC2)cc1 (stereo not drawn),-15.3%
12,O=C(CCOCC(F)(F)F)N1CCCC1c1noc(C2CC2)n1 (stereo not drawn),-8.98%
13,CCN(Cc1ccc2c(c1)OCCO2)C(=O)NCc1nncn1CC,-13.5%
14,Cc1nc(CN(C)C2CCN(CCn3cc(C#N)cn3)C2)no1 (stereo not drawn),8.59%
15,O=C(COCc1ccccc1)N1CCCC1c1noc(C2CC2)n1 (stereo not drawn),-7.31%
16,CC(C)c1nc(CN2CCOC(CNc3cccnn3)C2)cs1 (stereo not drawn),-8.93%
17,CC(C)CN(CCc1ccccc1)Cc1nc2c(cnn2C)c(=O)[nH]1,-3.12%
18,COCCN(CCOC)Cc1nc2c(cnn2C)c(=O)[nH]1,7%
19,O=C(c1cccc2c1OCO2)N1CCCC(n2ccnc2)C1 (stereo not drawn),-10.3%
20,O=C(c1cnc(-c2cccs2)s1)N1CCCC(n2ccnc2)C1 (stereo not drawn),-8.31%
21,COCc1ccc(C(=O)N2CCN(CC(C)O)CC2)cc1 (stereo not drawn),-3.37%
22,COCCCC(=O)N1CCC(Nc2cccnn2)CC1,-10.4%
23,Cc1cnn(CC2CCCN2C(=O)c2cccnc2-n2cncn2)c1 (stereo not drawn),-13.9%
24,Cc1nn(C)c(Cl)c1C1CCCN1C(=O)c1cnc[nH]1 (stereo not drawn),-12.8%

row,Compound,cytotoxicity at 70.5 h
1,CC(C)(C)c1cnc(CN2CCCC2Cn2cccn2)o1 (stereo not drawn),-5.71%
2,Cc1nc(C)n(CC2CCCCN2CC(=O)Nc2ccncc2)n1 (stereo not drawn),16.8%
3,N#Cc1ccc(OCCN2CCc3c(ncn3C3CC3)C2)cc1,8.16%
4,CCc1nc(CN2CCCN(C(=O)C(C)COC)CC2)cs1 (stereo not drawn),-2.68%
5,CCS(=O)(=O)c1ccccc1C(=O)NCc1ccnc(N(C)C)c1,-11.2%
6,O=C(Cc1ccc2c(c1)OCCO2)NC1CCCC1,10.8%
7,COc1ncccc1NC(=O)C1CCN(S(C)(=O)=O)CC1,-9.19%
8,CN(C)c1cc(CNC(=O)c2ccc(F)cc2F)ccn1,-10.5%
9,CC(NC(=O)c1cccs1)C(=O)NCc1cccnc1N1CCCCC1 (stereo not drawn),-16.1%
10,Cc1ncsc1C(=O)NC1CCN(Cc2cccnc2)CC1,0.341%
11,CCc1nnc2n1CCN(CCS(=O)(=O)c1ccccc1)C2,-11.4%
12,Cc1nnc2n1CCN(CCS(=O)(=O)c1ccccc1)C2,-9.06%
13,Cc1nc(C)n(CC2CCCCN2CC(=O)NC2CCOCC2)n1 (stereo not drawn),-5.93%
14,CCc1nc(CN2CCCN(C(=O)C(C)n3cncn3)CC2)cs1 (stereo not drawn),-8.34%
15,CCc1nc(CN2CCCN(C(=O)C(C)n3ccnc3)CC2)cs1 (stereo not drawn),-9%
16,CC(NC(=O)NCc1cccnc1N1CCCCC1)c1nccs1 (stereo not drawn),-4.81%
17,CC(O)CN1CCN(C(=O)c2ccn(-c3cccc(Cl)c3)n2)CC1 (stereo not drawn),13.7%
18,CSCc1cccc(C(=O)N2CCN(CC(C)O)CC2)c1 (stereo not drawn),-14.6%
19,COc1ccc(C(C)N2CCN(Cc3nccn3C)CC2)cc1Cl (stereo not drawn),-6.8%
20,Cc1cc(C)n(C2CN(CC(O)COc3ccc(F)cc3)C2)n1 (stereo not drawn),-16.7%
21,Cc1cccnc1CNc1cc(N2CCCC2CO)ncn1 (stereo not drawn),-8.44%
22,Cn1c(C2CC2)nc2c1CCN(CCOc1ccc(C#N)cc1)C2,-9.07%
23,CC(C)c1cc(NC(=O)CN2CCc3c(nc(C(C)C)n3C)C2)on1,-15%
24,CCc1nc(CN(C)C2CCN(CCNS(=O)(=O)CC)C2)no1 (stereo not drawn),46.2%

row,Compound,cytotoxicity at 70.5 h
1,FC(F)(F)Cn1ccnc1CN1CCCC1c1noc(C2CC2)n1 (stereo not drawn),-0.904%
2,CN(Cc1nnc(C2CC2)o1)C1CCN(CCCc2cnn(C)c2)C1 (stereo not drawn),6.71%
3,CCc1nc(CN(C)C2CCN(CCS(C)(=O)=O)C2)no1 (stereo not drawn),2.72%
4,CCc1nc(CN(C)C2CCN(CCc3ccccn3)C2)no1 (stereo not drawn),3.72%
5,Fc1cccc(-c2nc(CN3CCn4c(nnc4C4CC4)C3)co2)c1,-8.24%
6,Cc1nn2cccnc2c1C(=O)N1CCCC(n2ccnc2)C1 (stereo not drawn),-4.78%
7,CC(C)c1noc(CCC(=O)NCC2CCS(=O)(=O)C2)n1 (stereo not drawn),1.64%
8,O=C(NCc1cc[nH]n1)NCC(O)c1ccc(F)cc1F (stereo not drawn),-9.36%
9,COc1ccc(C(C)NC(=O)NCCCn2cncn2)cc1F (stereo not drawn),-4.51%
10,NC(=O)NC(=O)CCN1CCCN(c2nccs2)CC1,0.668%
11,CCOc1ccc(CN2CCN(C(=O)c3ccc(C)n3C)CC2)cc1,-0.122%
12,Cc1noc(Cl)c1CCC(=O)N1CCc2sccc2C1,-1.52%
13,Cc1ncc2c(n1)CN(CCCc1nc3ccccc3o1)CC2,-0.537%
14,CC(C)c1nnc2n1CCN(C(=O)c1ccnc(N(C)C)c1)C2,-0.0863%
15,Cc1ccc(NC2CCN(C(=O)c3cccc4ncccc34)CC2)nn1,1.63%
16,COc1cc(S(=O)(=O)N2CCc3ccc(F)cc32)cc(C(=O)O)c1OC,10.1%
17,O=C(NCCCNc1ccccc1)c1scnc1Cl,4.41%
18,Fc1ccc(-c2nnc(CN3CCn4c(nnc4C4CC4)C3)o2)cc1,-5.47%
19,Cc1ccc(C(N)c2cccc(S(C)(=O)=O)c2)cc1 (stereo not drawn),4.98%
20,COc1ccc(C(N)c2cccc(S(C)(=O)=O)c2)cc1 (stereo not drawn),-1.22%
21,COc1cc(S(=O)(=O)N2CCCc3ccccc32)cc(C(=O)O)c1OC,5.62%
22,c1csc(-c2nc(CN3CCn4c(nnc4C4CC4)C3)co2)c1,-13.1%
23,Cc1cc(S(=O)(=O)N2CCc3ccc(F)cc32)cc(C(=O)O)c1C,6.28%
24,CC(C)(C)c1nnc(CN2CCn3c(nnc3C3CC3)C2)o1,-0.488%

row,Compound,cytotoxicity at 70.5 h
1,Cc1nn2cccnc2c1C(=O)N1CCCC(Nc2ccccc2)C1 (stereo not drawn),-0.861%
2,O=C(NCc1cc[nH]n1)N(CCCO)C1CCc2ccccc21 (stereo not drawn),-0.509%
3,Cc1cnc(CN2CCCC2c2noc(C)n2)cn1 (stereo not drawn),5.04%
4,Cc1ccc(NC2CCN(C(=O)c3cc(C(N)=O)cs3)CC2)nn1,11.5%
5,Cc1cnn(CC2CCCCN2CCCS(N)(=O)=O)c1 (stereo not drawn),33.5%
6,Cc1cc(C)n(CC2CCCCN2CCCS(N)(=O)=O)n1 (stereo not drawn),14%
7,Cc1cnc(CN(C)C2CCN(Cc3nc4ccccc4n3C)C2)o1 (stereo not drawn),25.2%
8,Cc1ccc(CNC(=O)CN2CCCC(Cn3cncn3)C2)s1 (stereo not drawn),22.1%
9,Cc1ccccc1CC(=O)N(C)C1CCCC1,-4.43%
10,COc1ccc(OCCN(C)C(=O)NC(C)c2nncn2C)cc1 (stereo not drawn),-1.05%
11,CC(NC(=O)N(C)CCCOc1ccc(F)cc1)c1nncn1C (stereo not drawn),-1.45%
12,COc1ncccc1CNC(=O)NCCNC(=O)c1ccco1,0.312%
13,CC(C)Oc1ncccc1CNC(=O)c1ccco1,1.27%
14,CCS(=O)(=O)N(C)CC(=O)Nc1ccc(Br)cn1,4.52%
15,O=C(Cc1ccc(-n2cccn2)cc1)N1CCN2CCCCC2C1 (stereo not drawn),3.24%
16,CC(=O)NC1CCCN(C(=O)NCc2cccnc2N(C)C)C1 (stereo not drawn),4.39%
17,Cc1ccc(-c2nc(CCNC(=O)CCN3CCOC3=O)co2)cc1,-2.58%
18,Cn1ccnc1CN1CCN(Cc2noc(-c3ccccc3)n2)CC1,-4.14%
19,Cc1ccc(CCC(=O)N2CCCC(n3cncn3)C2)c(C)c1 (stereo not drawn),-3.58%
20,CCNc1cc2c(nn1)CCN(C(=O)c1ccc(CNC(C)=O)o1)C2,-5.9%
21,CCc1nc(C2CCCN2C(=O)c2nc(C)n3ccccc23)no1 (stereo not drawn),-7.79%
22,CS(=O)(=O)c1cccc(C(N)c2ccc(F)c(F)c2)c1 (stereo not drawn),-4.97%
